# Results taken from paper PMC3175004 (Aquatic toxicology (Amsterdam, Netherlands), 2010).
# Legend:
# beluga AHR [1] = conditions: determined by saturation binding; ref Jensen and Hahn 2001; cited from earlier work
# beluga AHR [2] = target: T1, beluga AHR (Delphinapterus leucas, UniProt Q95LD9); type: binding
# T1 sequence (Q95LD9 11-845): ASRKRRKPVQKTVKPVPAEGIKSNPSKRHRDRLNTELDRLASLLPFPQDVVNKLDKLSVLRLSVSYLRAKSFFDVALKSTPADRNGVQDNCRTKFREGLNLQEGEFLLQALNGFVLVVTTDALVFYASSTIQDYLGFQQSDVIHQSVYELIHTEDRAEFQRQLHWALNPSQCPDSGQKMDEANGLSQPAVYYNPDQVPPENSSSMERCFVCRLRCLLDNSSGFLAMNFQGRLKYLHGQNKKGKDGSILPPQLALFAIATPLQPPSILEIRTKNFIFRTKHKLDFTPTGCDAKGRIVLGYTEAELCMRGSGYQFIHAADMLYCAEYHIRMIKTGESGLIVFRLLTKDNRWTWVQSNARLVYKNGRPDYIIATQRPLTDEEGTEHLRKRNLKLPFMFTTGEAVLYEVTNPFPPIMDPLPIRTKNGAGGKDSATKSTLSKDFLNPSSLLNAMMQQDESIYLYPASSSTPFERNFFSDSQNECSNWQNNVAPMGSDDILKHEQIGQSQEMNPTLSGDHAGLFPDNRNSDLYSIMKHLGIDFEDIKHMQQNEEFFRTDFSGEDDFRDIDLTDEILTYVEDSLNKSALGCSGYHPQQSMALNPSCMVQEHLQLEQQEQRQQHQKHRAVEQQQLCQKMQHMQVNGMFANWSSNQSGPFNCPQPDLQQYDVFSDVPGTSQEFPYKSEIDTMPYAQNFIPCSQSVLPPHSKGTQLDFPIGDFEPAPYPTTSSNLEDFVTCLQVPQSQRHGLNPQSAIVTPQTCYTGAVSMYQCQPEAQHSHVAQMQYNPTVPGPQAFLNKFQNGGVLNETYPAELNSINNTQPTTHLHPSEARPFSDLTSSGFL
# [3] = target: T2, mouse AHR (Ah^b-1 allele) (Mus musculus, UniProt P30561); type: binding
# T2 sequence (P30561 10-848): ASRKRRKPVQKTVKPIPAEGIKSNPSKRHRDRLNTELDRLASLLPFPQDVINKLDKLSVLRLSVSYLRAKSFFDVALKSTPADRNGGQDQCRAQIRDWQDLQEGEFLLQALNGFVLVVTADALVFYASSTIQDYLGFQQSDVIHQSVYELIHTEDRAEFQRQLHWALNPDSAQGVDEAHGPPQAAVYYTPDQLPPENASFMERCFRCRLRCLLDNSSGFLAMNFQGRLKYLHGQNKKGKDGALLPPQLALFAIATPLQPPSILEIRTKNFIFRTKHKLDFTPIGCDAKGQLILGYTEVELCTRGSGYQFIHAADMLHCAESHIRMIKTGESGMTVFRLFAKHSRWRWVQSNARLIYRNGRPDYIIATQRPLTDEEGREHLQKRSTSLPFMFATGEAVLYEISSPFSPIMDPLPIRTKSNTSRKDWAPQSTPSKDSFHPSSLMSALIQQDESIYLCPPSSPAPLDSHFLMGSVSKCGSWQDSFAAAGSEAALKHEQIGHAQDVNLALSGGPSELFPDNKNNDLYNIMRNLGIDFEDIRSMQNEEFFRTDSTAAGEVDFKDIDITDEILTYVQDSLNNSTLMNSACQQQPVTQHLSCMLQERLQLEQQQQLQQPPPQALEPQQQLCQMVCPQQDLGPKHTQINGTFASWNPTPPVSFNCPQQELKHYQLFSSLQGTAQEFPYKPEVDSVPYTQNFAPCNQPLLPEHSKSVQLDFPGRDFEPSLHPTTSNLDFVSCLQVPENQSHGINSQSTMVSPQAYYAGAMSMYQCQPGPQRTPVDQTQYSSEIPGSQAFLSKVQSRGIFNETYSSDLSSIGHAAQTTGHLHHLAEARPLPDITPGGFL
# [4] = tested on: mouse AHR (Ah^b-1 allele); type: binding; conditions: mouse REP vs rat REP
smiles,measurement,setting,value
"[3H]c1c(Cl)c(Cl)cc2c1Oc1cc(Cl)c(Cl)c([3H])c1O2 [[^3H]TCDD, 2,3,7,8-Tetrachloro[1,6-^3H]dibenzo-p-dioxin]","binding affinity for beluga AHR vs mouse AHR, fold higher",beluga AHR [1],~ 2 fold
"Clc1cc2c(cc1Cl)Oc1cc(Cl)c(Cl)cc1O2 [TCDD, 2,3,7,8-tetrachlorodibenzo-p-dioxin, reference compound]",IC50,beluga AHR [2],470 pM
same,Ki,beluga AHR [2],100 pM
same,Ki,[3],360 pM
Clc1ccc(-c2ccc(Cl)c(Cl)c2Cl)c(Cl)c1Cl [PCB-128],inhibition of [3H]TCDD binding reached by the curves,"beluga AHR [2]; beluga AHR, maximum reached by competition curves",90%
same,inhibition of [3H]TCDD binding reached by the curves,"[3]; mouse AHR, maximum reached by competition curves",80%
Clc1ccc(-c2cc(Cl)c(Cl)c(Cl)c2)cc1 [PCB-81],fold higher binding REP compared to rat,beluga AHR [2]; beluga REP vs rat REP,14 fold
same,fold higher binding REP compared to rat,[4],28 fold
Clc1ccc(-c2cc(Cl)c(Cl)cc2Cl)cc1Cl [PCB-118],fold lower REP compared to rat,beluga AHR [2]; beluga REP vs rat REP,15 fold
same,fold lower REP compared to rat,[4],10 fold
